Laboratory results reported in patent publication EP0909764A1, “11 Beta-Benzaldoxim-9 Alpha, 10 Alpha-epoxy-estr-4-en-derivatives, a process for their production and pharmaceutical compositions containing them” (JENAPHARM GmbH, priority 1997, dated 1999).

What was measured:
[1] = biological target: T1, Progesteronrezeptor (Oryctolagus cuniculus, UniProt P06186); test: Receptor binding affinity, competitive binding with 3H-ORG 2058 in uterus cytosol; design: species or system Kaninchen; settings: uterus cytosol of estradiol-primed rabbit; tracer 3H-ORG 2058 5nM; 18 h at 0-4°C; quotient of IC50 values x 100 %
T1 construct: Rezeptoren im Cytosol aus tierischen Target-Organen; from tissue; host or cells: uterus cytosol of estradiol-primed rabbit
T1 sequence (P06186 1-930): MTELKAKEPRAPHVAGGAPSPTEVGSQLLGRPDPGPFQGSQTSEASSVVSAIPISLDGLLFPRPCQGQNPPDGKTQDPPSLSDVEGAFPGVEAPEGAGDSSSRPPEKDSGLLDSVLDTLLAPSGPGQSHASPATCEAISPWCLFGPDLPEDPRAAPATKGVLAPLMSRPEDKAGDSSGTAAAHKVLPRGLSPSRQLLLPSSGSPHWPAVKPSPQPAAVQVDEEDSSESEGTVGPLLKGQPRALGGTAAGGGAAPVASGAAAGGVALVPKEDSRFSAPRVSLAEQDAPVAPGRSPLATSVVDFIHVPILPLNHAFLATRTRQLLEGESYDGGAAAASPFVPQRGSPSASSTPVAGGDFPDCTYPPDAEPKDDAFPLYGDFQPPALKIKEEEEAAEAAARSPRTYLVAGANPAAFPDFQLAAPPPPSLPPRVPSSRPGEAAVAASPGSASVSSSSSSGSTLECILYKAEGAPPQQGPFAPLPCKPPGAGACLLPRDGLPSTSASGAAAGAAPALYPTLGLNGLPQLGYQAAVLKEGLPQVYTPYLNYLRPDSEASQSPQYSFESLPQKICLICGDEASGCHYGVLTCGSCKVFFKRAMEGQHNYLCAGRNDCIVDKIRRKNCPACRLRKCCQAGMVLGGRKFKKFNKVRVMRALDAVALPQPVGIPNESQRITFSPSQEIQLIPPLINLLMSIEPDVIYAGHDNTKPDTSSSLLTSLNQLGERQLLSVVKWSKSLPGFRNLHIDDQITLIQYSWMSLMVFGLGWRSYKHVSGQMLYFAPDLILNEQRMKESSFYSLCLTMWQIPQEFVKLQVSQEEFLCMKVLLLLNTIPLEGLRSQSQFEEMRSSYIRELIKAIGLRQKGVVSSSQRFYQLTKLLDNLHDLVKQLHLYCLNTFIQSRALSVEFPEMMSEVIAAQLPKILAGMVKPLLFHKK
Procedure: (§1) Die Rezeptor-Bindungsaffinität wurde bestimmt durch competitive Bindung eines spezifisch bindenden ^3H-markierten Hormons (Tracer) und der zu testenden Verbindung an Rezeptoren im Cytosol aus tierischen Target-Organen. Dabei wurden Rezeptorsättigung und Reaktionsgleichgewicht angestrebt. Folgende Inkubationsbe-dingungen wurden gewählt: • Progesteron-Rezeptor: Uterus-Cytosol des Estradiol-geprimten Kannchens, aufbe-wahrt bei -30° C. Puffer für Homogenisation und Inkubation: TED-Puffer 20 mM Tris/HCl, pH= 7,4; 1mM Ethylendiamintetraacetat, 2 mM Dithiothreitol) mit 250mM Saccharose. Tracer: ^3H-ORG 2058, 5nM; Referenzsubstanz: Progesteron. • Glucocorticoid-Rezeptor: Thymus-Cytosol der adrenalectomierten Ratte. Thymi aufbewahrt bei -30 °C. Puffer: TED. Tracer: ^3H-Dexamethason, 20nM. Referenzsub-stanz: Dexamethason. • Estrogen-Rezeptor: Uterus-Cytosol des unreifen Kaninchens, aufbewahrt bei -30 °C. Puffer:TED mit 250 mM Saccharose. Tracer: ^3H-Estradiol, 3nM. Referenzsubstanz: 17β-Estradiol.
(§2) Nach einer Inkubation von Rezeptorfraktion, Tracer und Competitor für 18 h bei 0-4°C erfolgte die Trennung von gebundenem und freiem Steroid durch Einmischen von Aktivkohle/Dextran (1 % / 0,1 %), Abzentrifugieren und Messung der rezeptorgebundenen ^3H-Aktivität im Überstand.
Aus der Messung in Konzentrationsreihen wurden die IC50 für die Referenzsubstanz und für die zu testende Verbindung ermittelt und als Quotient beider Werte (x 100 %) die relative molare Bindungsaffinität bestimmt. Nach einer Inkubationsdauer von 18 Stunden bei 0-4 °C erfolgte die Trennung von gebundenen und freiem Steroid durch Einmischen von Aktivkohle/Dextran / 1%/0,1 %), abzentrifugieren und Messung der gebundenen ^3H-Aktivität im Überstand. Aus der Messung in Konzentrationsreihen wurden die IC50 für die zu testende Substanz und für die Referenzverbindung ermittelt und als Quotient beider Werte (x 100 %) die relative molare Bindungsaffinität bestimmt.

[2] = biological target: T2, Glucocorticoidrezeptor (Rattus norvegicus, UniProt P06536); test: Receptor binding affinity, competitive binding with 3H-Dexamethason in thymus cytosol; design: species or system Ratte; settings: thymus cytosol of adrenalectomised rat; tracer 3H-Dexamethason 20nM; 18 h at 0-4°C; quotient of IC50 values x 100 %
T2 construct: Rezeptoren im Cytosol aus tierischen Target-Organen; from tissue; host or cells: thymus cytosol of adrenalectomised rat
T2 sequence (P06536 1-795): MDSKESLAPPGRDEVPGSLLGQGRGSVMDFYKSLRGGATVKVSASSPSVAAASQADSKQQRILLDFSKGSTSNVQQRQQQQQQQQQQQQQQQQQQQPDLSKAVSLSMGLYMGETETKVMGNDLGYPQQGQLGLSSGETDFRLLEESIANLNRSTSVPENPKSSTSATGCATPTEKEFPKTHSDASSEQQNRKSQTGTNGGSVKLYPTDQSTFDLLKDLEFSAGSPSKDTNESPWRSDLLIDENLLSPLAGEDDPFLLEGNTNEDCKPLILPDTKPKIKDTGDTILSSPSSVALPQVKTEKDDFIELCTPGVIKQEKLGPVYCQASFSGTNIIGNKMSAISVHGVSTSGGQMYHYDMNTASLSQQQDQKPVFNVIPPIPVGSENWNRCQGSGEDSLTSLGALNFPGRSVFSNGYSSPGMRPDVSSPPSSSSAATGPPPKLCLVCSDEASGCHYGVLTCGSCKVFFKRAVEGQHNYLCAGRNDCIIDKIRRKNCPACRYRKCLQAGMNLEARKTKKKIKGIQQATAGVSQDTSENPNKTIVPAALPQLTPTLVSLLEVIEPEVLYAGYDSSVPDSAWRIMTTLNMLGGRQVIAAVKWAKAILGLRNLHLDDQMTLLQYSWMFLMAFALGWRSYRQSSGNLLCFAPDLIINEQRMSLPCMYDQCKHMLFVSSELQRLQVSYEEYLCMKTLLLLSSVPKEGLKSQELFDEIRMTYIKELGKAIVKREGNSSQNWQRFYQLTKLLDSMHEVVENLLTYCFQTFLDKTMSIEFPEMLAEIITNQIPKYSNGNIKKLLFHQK
Procedure: as §1, with “Tracer: ^3H-ORG 2058, 5nM; Referenzsubstanz: Progesteron. • Glucocorticoid-Rezeptor: Thymus-Cytosol der adrenalectomierten Ratte.” left out
as §2
Nach einer Inkubationsdauer von 18 Stunden bei 0-4 °C erfolgte die Trennung von gebundenen und freiem Steroid durch Einmischen von Aktivkohle/Dextran / 1%/0,1 %), abzentrifugieren und Messung der gebundenen ^3H-Aktivität im Überstand.

[3] = system: frühe Gravidität bei der Ratte; test: Inhibition of early pregnancy in the rat (early abortive effect, subcutaneous); format: in vivo; settings: day 5-7 of pregnancy, empty uteri; for komplette Graviditätshemmung N#/N: N# non-pregnant females / N mated females
Procedure: Rattenweibchen wurde im Stadium Prooestrus angepaart. Bei Nachweis von Spermien im Vaginalbereich am nächsten Tag wird dieser als Tag 1 (d =1) der Gravidität gesetzt. Die Behandlung der Ratten mit Testsubstanz oder Vehikel erfolgt mit 0,2 ml Benzoylbenzoat /Rizinusöl (1+4 v/v) subcutan vom Tag 5 bis Tag 7 (d5 -d7), die Autopsie erfolgt am Tag d 9. Die Rate von vollständig gehemmten Graviditäten in den einzelnen Gruppen ergibt sich aus Tabelle 2. So wurde für die Beispiele 1 (J 1102), 3 (J 1116), 8 (J 1204) und 9 (J 1120) eine um den Faktor 10 überlegene Nidationshemmung gegenüber RU 486 (Mifepriston) ermittelt.

Row | SMILES | relative molare Bindungs-affinität RBA (%) zum Progesteronrezeptor Progesteron = 100 % [1] [%] | relative molare Bindungs-affinität RBA (%) zum Glucocorticoidrezeptor Dexamethason = 100 % [2] [%] | komplette Graviditätshemmung N#/N ([3]; 0,3 mg/Tier/Tag s.c.) | komplette Graviditätshemmung % ([3]; 0,3 mg/Tier/Tag s.c.) [%] | komplette Graviditätshemmung N#/N ([3]; 1 mg/Tier/Tag s.c.) | komplette Graviditätshemmung % ([3]; 1 mg/Tier/Tag s.c.) [%] | komplette Graviditätshemmung N#/N ([3]; 3 mg/Tier/Tag s.c.) | komplette Graviditätshemmung % ([3]; 3 mg/Tier/Tag s.c.) [%]
1 | COC[C@]1(OC)CC[C@H]2[C@@H]3CCC4=CC(=O)CC[C@]45O[C@]35[C@@H](c3ccc(/C=N/O)cc3)C[C@@]21C [1 ( J 1102)] | 88 | 12 | – | – | – | – | – | –
2 | COC[C@]1(OC)CC[C@H]2[C@@H]3CCC4=CC(=O)CC[C@]45O[C@]35[C@@H](c3ccc(/C=N\O)cc3)C[C@@]21C [2 ( J 1160)] | 49 | 18 | – | – | – | – | – | –
3 | COC[C@]1(O)CC[C@H]2[C@@H]3CCC4=CC(=O)CC[C@]45O[C@]35[C@@H](c3ccc(/C=N/O)cc3)C[C@@]21C [3 ( J 1116)] | 47 | 12 | – | – | – | – | – | –
4 | COC[C@]1(O)CC[C@H]2[C@@H]3CCC4=CC(=O)CC[C@]45O[C@]35[C@@H](c3ccc(/C=N\O)cc3)C[C@@]21C [4 ( J 1182)] | 29 | – | – | – | – | – | – | –
5 | COC[C@]1(OC)CC[C@H]2[C@@H]3CCC4=CC(=O)CC[C@]45O[C@]35[C@@H](c3ccc(/C=N/OC(C)=O)cc3)C[C@@]21C [5 ( J 1130)] | 59 | 15 | – | – | – | – | – | –
6 | COC[C@]1(O)CC[C@H]2[C@@H]3CCC4=CC(=O)CC[C@]45O[C@]35[C@@H](c3ccc(/C=N/OC(C)=O)cc3)C[C@@]21C [6 ( J 1180)] | 31 | 8 | – | – | – | – | – | –
7 | CCOC(=O)O/N=C/c1ccc([C@H]2C[C@@]3(C)[C@@H](CC[C@]3(COC)OC)[C@@H]3CCC4=CC(=O)CC[C@]45O[C@]235)cc1 [9 ( J 1120)] | 63 | 15 | – | – | – | – | – | –
8 | CCNC(=O)O/N=C/c1ccc([C@H]2C[C@@]3(C)[C@@H](CC[C@@]3(O)COC)[C@@H]3CCC4=CC(=O)CC[C@]45O[C@]235)cc1 [16 ( J 1186)] | 64 | 13 | – | – | – | – | – | –
9 | CCNC(=O)O/N=C/c1ccc([C@H]2C[C@@]3(C)[C@@H](CC[C@]3(COC)OC)[C@@H]3CCC4=CC(=O)CC[C@]45O[C@]235)cc1 [17 ( J 1131)] | 68 | 30 | – | – | – | – | – | –
10 | COC[C@]1(OC)CC[C@H]2[C@@H]3CCC4=CC(=O)CCC4=C3[C@@H](c3ccc(/C=N/O)cc3)C[C@@]21C [J 867] | 302 | 77 | 0/5 | 0 | 5/5 | 100 | 5/5 | 100
11 | CC#C[C@]1(O)CC[C@H]2[C@@H]3CCC4=CC(=O)CCC4=C3[C@@H](c3ccc(N(C)C)cc3)C[C@@]21C [RU 486, Mifepriston] | – | 685 | 0/5 | 0 | 1/5 | 20 | 5/5 | 100
12 | CN(C)c1ccc([C@H]2C[C@]3(C)[C@@H](CC[C@]3(O)CCCO)[C@@H]3CCC4=CC(=O)CCC4=C32)cc1 [ZK 98299, Onapriston] | 22 | 39 | – | – | – | – | – | –
